Patent US9732119B2, “Immunomodulators” (BRISTOL-MYERS SQUIBB COMPANY, priority 2014, dated 2017)

Each molecule was assayed against T1, PD-1-Ig binding to PD-L1-TVMV-His (PD-L1-His) (Homo sapiens, UniProt Q9NZQ7) (assay: PD-1/PD-L1 Homogenous Time-Resolved Fluorescence (HTRF) binding assay). Details: PD-1-Ig (20 nM) / PD-L1-His (10 nM); numeric values.
T1 construct: hPDL1(19-239)-TVMV-His; made in house; host or cells: HEK293T cells
Procedure, shortened: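 HTRF competition: compound pre-incubated 15 min with PD-L1-His (10 nM final), then PD-1-Ig (20 nM final) added for 15 min in dPBS, 0.1% BSA, 0.05% Tween-20. Detection with Eu-cryptate anti-Ig (1 nM) and APC anti-His (20 nM) antibodies.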

T1 sequence (Q9NZQ7 with tags, fused parts or gaps): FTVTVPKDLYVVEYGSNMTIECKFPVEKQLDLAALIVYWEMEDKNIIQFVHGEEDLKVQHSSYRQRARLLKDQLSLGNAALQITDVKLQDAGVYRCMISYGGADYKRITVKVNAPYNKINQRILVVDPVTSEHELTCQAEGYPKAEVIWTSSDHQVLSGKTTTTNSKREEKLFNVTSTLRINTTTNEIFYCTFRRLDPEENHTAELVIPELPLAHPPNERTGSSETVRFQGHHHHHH

IC50 | SMILES
10 nM | CCCC[C@H]1C(=O)N(C)[C@@H](CCCC)C(=O)N[C@@H](CC(C)C)C(=O)N[C@H](C(N)=O)CNCC(=O)N[C@@H](Cc2ccc(F)cc2)C(=O)N2CCCC[C@H]2C(=O)N[C@@H](CC(N)=O)C(=O)N2CCC[C@H]2C(=O)N[C@@H](Cc2c[nH]cn2)C(=O)N[C@@H](CCC(=O)O)C(=O)N2C[C@H](O)C[C@H]2C(=O)N[C@@H](Cc2c[nH]c3ccccc23)C(=O)N[C@@H](C)C(=O)N[C@@H](Cc2cn(CC(=O)O)c3ccccc23)C(=O)N1C [Example 9052]

Same assay, conditions: PD-1-Ig (20 nM) / PD-L1-His (10 nM); range classes

IC50 | SMILES
1 to 9.9 nM | CCCC[C@H]1C(=O)N(C)[C@@H](CCCC)C(=O)N[C@@H](CCC(=O)O)C(=O)N[C@H](C(N)=O)CNCC(=O)N[C@@H](Cc2ccc(F)cc2)C(=O)N2CCCC[C@H]2C(=O)N[C@@H](CC(N)=O)C(=O)N2CCC[C@H]2C(=O)N[C@@H](CCC(N)=O)C(=O)N[C@@H](CC(C)C)C(=O)N2C[C@H](O)C[C@H]2C(=O)N[C@@H](Cc2c[nH]c3ccccc23)C(=O)N[C@@H](CC(N)=O)C(=O)N[C@@H](Cc2cn(CC(=O)O)c3ccccc23)C(=O)N1C [Example 9046]
1 to 9.9 nM | CCCC[C@H]1C(=O)N(C)[C@@H](CCCC)C(=O)N[C@@H](CCC(=O)O)C(=O)N[C@H](C(N)=O)CNCC(=O)N[C@@H](Cc2ccc(F)cc2)C(=O)N2CCCC[C@H]2C(=O)N[C@@H](CC(N)=O)C(=O)N2CCC[C@H]2C(=O)N[C@@H](CCC(N)=O)C(=O)N[C@@H](CCC(=O)O)C(=O)N2C[C@H](O)C[C@H]2C(=O)N[C@@H](Cc2c[nH]c3ccccc23)C(=O)N[C@@H](CC(N)=O)C(=O)N[C@@H](Cc2cn(CC(=O)O)c3ccccc23)C(=O)N1C [Example 9047]
1 to 9.9 nM | CCCC[C@H]1C(=O)N(C)[C@@H](CCCC)C(=O)N[C@@H](CCC(=O)O)C(=O)N[C@H](C(N)=O)CNCC(=O)N[C@@H](Cc2ccc(F)cc2)C(=O)N2CCCC[C@H]2C(=O)N[C@@H](CC(N)=O)C(=O)N2CCC[C@H]2C(=O)N[C@@H](CCC(N)=O)C(=O)N[C@@H](CCC(N)=O)C(=O)N2C[C@H](O)C[C@H]2C(=O)N[C@@H](Cc2c[nH]c3ccccc23)C(=O)N[C@@H](CC(N)=O)C(=O)N[C@@H](Cc2cn(CC(=O)O)c3ccccc23)C(=O)N1C [Example 9048]
1 to 9.9 nM | CCCC[C@H]1C(=O)N(C)[C@@H](CCCC)C(=O)N[C@@H](CC(C)C)C(=O)N[C@H](C(N)=O)CNCC(=O)N[C@@H](Cc2ccc(O)cc2)C(=O)N2CCCC[C@H]2C(=O)N[C@@H](CC(N)=O)C(=O)N2CCC[C@H]2C(=O)N[C@@H](Cc2c[nH]cn2)C(=O)N[C@@H](CC(=O)O)C(=O)N2C[C@H](O)C[C@H]2C(=O)N[C@@H](Cc2c[nH]c3ccccc23)C(=O)N[C@@H](C)C(=O)N[C@@H](Cc2cn(CC(=O)O)c3ccccc23)C(=O)N1C [Example 9049]
1 to 9.9 nM | CCCC[C@H]1C(=O)N(C)[C@@H](CCCC)C(=O)N[C@@H](CC(C)C)C(=O)N[C@H](C(N)=O)CNCC(=O)N[C@@H](Cc2ccc(O)cc2)C(=O)N2CCCC[C@H]2C(=O)N[C@@H](CC(N)=O)C(=O)N2CCC[C@H]2C(=O)N[C@@H](Cc2c[nH]cn2)C(=O)N[C@@H](CCC(=O)O)C(=O)N2C[C@H](O)C[C@H]2C(=O)N[C@@H](Cc2c[nH]c3ccccc23)C(=O)N[C@@H](C)C(=O)N[C@@H](Cc2cn(CC(=O)O)c3ccccc23)C(=O)N1C [Example 9050]
1 to 9.9 nM | CCCC[C@H]1C(=O)N(C)[C@@H](CCCC)C(=O)N[C@@H](CC(C)C)C(=O)N[C@H](C(N)=O)CNCC(=O)N[C@@H](Cc2ccc(O)cc2)C(=O)N2CCCC[C@H]2C(=O)N[C@@H](CC(N)=O)C(=O)N2CCC[C@H]2C(=O)N[C@@H](Cc2c[nH]cn2)C(=O)N[C@@H](CCC(N)=O)C(=O)N2C[C@H](O)C[C@H]2C(=O)N[C@@H](Cc2c[nH]c3ccccc23)C(=O)N[C@@H](C)C(=O)N[C@@H](Cc2cn(CC(=O)O)c3ccccc23)C(=O)N1C [Example 9051]
1 to 9.9 nM | CCCC[C@H]1C(=O)N(C)[C@@H](CCCC)C(=O)N[C@@H](CC(C)C)C(=O)N[C@H](C(N)=O)CNCC(=O)N[C@@H](Cc2ccc(F)cc2)C(=O)N2CCCC[C@H]2C(=O)N[C@@H](CC(N)=O)C(=O)N2CCCC2C(=O)N[C@@H](Cc2c[nH]cn2)C(=O)N[C@@H](CCC(N)=O)C(=O)N2C[C@H](O)C[C@H]2C(=O)N[C@@H](Cc2c[nH]c3ccccc23)C(=O)N[C@@H](C)C(=O)N[C@@H](Cc2cn(CC(=O)O)c3ccccc23)C(=O)N1C (some centres unmarked) [Example 9053]
1 to 9.9 nM | CCCC[C@H]1C(=O)N(C)[C@@H](CCCC)C(=O)N[C@@H](CCC(=O)O)C(=O)N[C@H](C(N)=O)CNCC(=O)N[C@@H](Cc2ccc(O)cc2)C(=O)N2CCCC[C@H]2C(=O)N[C@@H](CC(N)=O)C(=O)N2CCC[C@H]2C(=O)N[C@@H](Cc2c[nH]cn2)C(=O)N[C@@H](CC(=O)O)C(=O)N2C[C@H](O)C[C@H]2C(=O)N[C@@H](Cc2c[nH]c3ccccc23)C(=O)N[C@@H](C)C(=O)N[C@@H](Cc2cn(CC(=O)O)c3ccccc23)C(=O)N1C [Example 9054]
1 to 9.9 nM | CCCC[C@H]1C(=O)N(C)[C@@H](CCCC)C(=O)N[C@@H](CCC(=O)O)C(=O)N[C@H](C(N)=O)CNCC(=O)N[C@@H](Cc2ccc(O)cc2)C(=O)N2CCCC[C@H]2C(=O)N[C@@H](CC(N)=O)C(=O)N2CCC[C@H]2C(=O)N[C@@H](Cc2c[nH]cn2)C(=O)N[C@@H](CCC(=O)O)C(=O)N2C[C@H](O)C[C@H]2C(=O)N[C@@H](Cc2c[nH]c3ccccc23)C(=O)N[C@@H](C)C(=O)N[C@@H](Cc2cn(CC(=O)O)c3ccccc23)C(=O)N1C [Example 9055]
1 to 9.9 nM | CCCC[C@H]1C(=O)N(C)[C@@H](CCCC)C(=O)N[C@@H](CCC(=O)O)C(=O)N[C@H](C(N)=O)CNCC(=O)N[C@@H](Cc2ccc(O)cc2)C(=O)N2CCCC[C@H]2C(=O)N[C@@H](CC(N)=O)C(=O)N2CCC[C@H]2C(=O)N[C@@H](Cc2c[nH]cn2)C(=O)N[C@@H](CCC(N)=O)C(=O)N2C[C@H](O)C[C@H]2C(=O)N[C@@H](Cc2c[nH]c3ccccc23)C(=O)N[C@@H](C)C(=O)N[C@@H](Cc2cn(CC(=O)O)c3ccccc23)C(=O)N1C [Example 9056]
1 to 9.9 nM | CCCC[C@H]1C(=O)N(C)[C@@H](CCCC)C(=O)N[C@@H](CCC(=O)O)C(=O)N[C@H](C(N)=O)CNCC(=O)N[C@@H](Cc2ccc(F)cc2)C(=O)N2CCCC[C@H]2C(=O)N[C@@H](CC(N)=O)C(=O)N2CCC[C@H]2C(=O)N[C@@H](Cc2c[nH]cn2)C(=O)N[C@@H](CC(=O)O)C(=O)N2C[C@H](O)C[C@H]2C(=O)N[C@@H](Cc2c[nH]c3ccccc23)C(=O)N[C@@H](C)C(=O)N[C@@H](Cc2cn(CC(=O)O)c3ccccc23)C(=O)N1C [Example 9057]
1 to 9.9 nM | CCCC[C@H]1C(=O)N(C)[C@@H](CCCC)C(=O)N[C@@H](CCC(=O)O)C(=O)N[C@H](C(N)=O)CNCC(=O)N[C@@H](Cc2ccc(F)cc2)C(=O)N2CCCC[C@H]2C(=O)N[C@@H](CC(N)=O)C(=O)N2CCC[C@H]2C(=O)N[C@@H](Cc2c[nH]cn2)C(=O)N[C@@H](CCC(=O)O)C(=O)N2C[C@H](O)C[C@H]2C(=O)N[C@@H](Cc2c[nH]c3ccccc23)C(=O)N[C@@H](C)C(=O)N[C@@H](Cc2cn(CC(=O)O)c3ccccc23)C(=O)N1C [Example 9058]
1 to 9.9 nM | CCCC[C@H]1C(=O)N(C)[C@@H](CCCC)C(=O)N[C@@H](CCC(=O)O)C(=O)N[C@H](C(N)=O)CNCC(=O)N[C@@H](Cc2ccc(F)cc2)C(=O)N2CCCC[C@H]2C(=O)N[C@@H](CC(N)=O)C(=O)N2CCC[C@H]2C(=O)N[C@@H](Cc2c[nH]cn2)C(=O)N[C@@H](CCC(N)=O)C(=O)N2C[C@H](O)C[C@H]2C(=O)N[C@@H](Cc2c[nH]c3ccccc23)C(=O)N[C@@H](C)C(=O)N[C@@H](Cc2cn(CC(=O)O)c3ccccc23)C(=O)N1C [Example 9059]
